Here are results for 9 compounds from patent US9499550B2 (BRISTOL-MYERS SQUIBB COMPANY, priority 2012, dated 2016).

Test [1] concerns HCV genotype 1a (H77 strain) replicon in HUH-7 cells. The experiment in a line: HCV replicon luciferase reporter assay, genotype 1a. In kind it is cell-based. As to conditions: Hepatitis C virus, Huh-7, 72 h, HCV genotype 1a replicon luciferase assay, 3 days incubation, range class, read-out: LE_1a (EC50, range). A digest of the protocol: (§1)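 Replicon inhibition for both genotypes was measured as Renilla luciferase signal (EnduRen, 7.5 μM final, 2 h) after 3-day, 37° C exposure of replicon-bearing HUH-7 cells in 4% FCS DMEM, 0.5% DMSO. The 1b construct carries S1179I; the 1a H77 construct carries P1496L and S2204I. Twenty-point, 3-fold dilutions were fitted four-parametrically for EC50, and CC50 was taken from multiplexed Cell Titer-Blue.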

Test [2] concerns HCV genotype 1b (Con1) replicon in HUH-7 cells. Nature of the test: HCV replicon luciferase reporter assay, genotype 1b. In kind it is cell-based. To be noted: Hepatitis C virus, Huh-7, 72 h, HCV genotype 1b replicon luciferase assay, 3 days incubation, range class, read-out: LE_1b (EC50, range). A digest of the protocol: as §1

pEC50: −log10 of the molar value.

On to `COc1ccc2c(O[C@@H]3C[C@H]4C(=O)N[C@]5(C(=O)NS(=O)(=O)C6CC6)C[C@H]5/C=C\CC[C@@H](C)C[C@@H](C)[C@H](NC(=O)O[C@@H]5C[C@@H]6C[C@@H]6C5)C(=O)N4C3)nc(-c3ccc(F)cc3)cc2c1` [Compound 3046, (1R,3r,5S)-bicyclo[3.1.0]hexan-3-yl((2R,6S,7R,9R,13aS,14aR,16aS,Z)-14a-((cyclopropylsulfonyl)carbamoyl)-2-((3-(4-fluorophenyl)-6-methoxyisoquinolin-1-yl)oxy)-7,9-dimethyl-5,16-dioxo-1,2,3,5,6,7,8,9,10,11,13a,14,14a,15,16,16a-hexadecahydrocyclopropa[e]pyrrolo[1,2-a][1,4]diazacyclopentadecin-6-yl)carbamate], for which the pEC50 in test [1] and in test [2] was more than 8.26 throughout.
Turning to `COc1ccc2c(O[C@@H]3C[C@H]4C(=O)N[C@]5(C(=O)NS(=O)(=O)C6CC6)C[C@H]5/C=C\CC[C@H](C)C[C@@H](C)[C@H](NC(=O)OC(C)(C)C)C(=O)N4C3)nc(-c3ccc(OC)c(Cl)c3)cc2c1` [Compound 3047, tert-butyl ((2R,6S,7R,9S,13aS,14aR,16aS,Z)-2-((3-(3-chloro-4-methoxyphenyl)-6-methoxyisoquinolin-1-yl)oxy)-14a-((cyclopropylsulfonyl)carbamoyl)-7,9-dimethyl-5,16-dioxo-1,2,3,5,6,7,8,9,10,11,13a,14,14a,15,16,16a-hexadecahydrocyclopropa[e]pyrrolo[1,2-a][1,4]diazacyclopentadecin-6-yl)carbamate], the negative-log EC50 (pEC50) is 6.99 to 8.32 in test [1] and more than 8.26 in test [2].
The like results for `COc1ccc2c(O[C@@H]3C[C@H]4C(=O)N[C@]5(C(=O)NS(=O)(=O)C6CC6)C[C@H]5/C=C\CC[C@@H](C)C[C@@H](C)[C@H](NC(=O)OC(C)(C)C)C(=O)N4C3)nc(-c3ccc(OC)c(Cl)c3)cc2c1` [Compound 3048, tert-butyl ((2R,6S,7R,9R,13aS,14aR,16aS,Z)-2-((3-(3-chloro-4-methoxyphenyl)-6-methoxyisoquinolin-1-yl)oxy)-14a-((cyclopropylsulfonyl)carbamoyl)-7,9-dimethyl-5,16-dioxo-1,2,3,5,6,7,8,9,10,11,13a,14,14a,15,16,16a-hexadecahydrocyclopropa[e]pyrrolo[1,2-a][1,4]diazacyclopentadecin-6-yl)carbamate] were, in that order, more than 8.26 and more than 8.26.
The corresponding values for `COc1ccc2c(O[C@@H]3C[C@H]4C(=O)N[C@]5(C(=O)NS(=O)(=O)C6CC6)C[C@H]5/C=C\CC[C@H](C)C[C@@H](C)[C@H](NC(=O)OC(C)(C)C)C(=O)N4C3)nc(-c3ccc(OC)c(F)c3)cc2c1` [Compound 3049, tert-butyl ((2R,6S,7R,9S,13aS,14aR,16aS,Z)-14a-((cyclopropylsulfonyl)carbamoyl)-2-((3-(3-fluoro-4-methoxyphenyl)-6-methoxyisoquinolin-1-yl)oxy)-7,9-dimethyl-5,16-dioxo-1,2,3,5,6,7,8,9,10,11,13a,14,14a,15,16,16a-hexadecahydrocyclopropa[e]pyrrolo[1,2-a][1,4]diazacyclopentadecin-6-yl)carbamate] are more than 8.26 and more than 8.26.
The like results for `COc1ccc2c(O[C@@H]3C[C@H]4C(=O)N[C@]5(C(=O)NS(=O)(=O)C6CC6)C[C@H]5/C=C\CC[C@@H](C)C[C@@H](C)[C@H](NC(=O)OC(C)(C)C)C(=O)N4C3)nc(-c3ccc(OC)c(F)c3)cc2c1` [Compound 3050, tert-butyl ((2R,6S,7R,9R,13aS,14aR,16aS,Z)-14a-((cyclopropylsulfonyl)carbamoyl)-2-((3-(3-fluoro-4-methoxyphenyl)-6-methoxyisoquinolin-1-yl)oxy)-7,9-dimethyl-5,16-dioxo-1,2,3,5,6,7,8,9,10,11,13a,14,14a,15,16,16a-hexadecahydrocyclopropa[e]pyrrolo[1,2-a][1,4]diazacyclopentadecin-6-yl)carbamate] were, in that order, more than 8.26 and more than 8.26.
As to `COc1ccc2c(O[C@@H]3C[C@H]4C(=O)N[C@]5(C(=O)NS(=O)(=O)C6CC6)C[C@H]5/C=C\CC[C@H](C)C[C@@H](C)[C@H](NC(=O)OC(C)(C)C(F)(F)F)C(=O)N4C3)nc(-c3ccc(OC)c(Cl)c3)cc2c1` [Compound 3051, 1,1,1-trifluoro-2-methylpropan-2-yl((2R,6S,7R,9S,13aS,14aR,16aS,Z)-2-((3-(3-chloro-4-methoxyphenyl)-6-methoxyisoquinolin-1-yl)oxy)-14a-((cyclopropylsulfonyl)carbamoyl)-7,9-dimethyl-5,16-dioxo-1,2,3,5,6,7,8,9,10,11,13a,14,14a,15,16,16a-hexadecahydrocyclopropa[e]pyrrolo[1,2-a][1,4]diazacyclopentadecin-6-yl)carbamate], the negative logarithm of the EC50 (pEC50) in test [1] was 6.99 to 8.32; in test [2], more than 8.26.
The corresponding values for `COc1ccc2c(O[C@@H]3C[C@H]4C(=O)N[C@]5(C(=O)NS(=O)(=O)C6CC6)C[C@H]5/C=C\CC[C@@H](C)C[C@@H](C)[C@H](NC(=O)OC(C)(C)C(F)(F)F)C(=O)N4C3)nc(-c3ccc(OC)c(Cl)c3)cc2c1` [Compound 3052, 1,1,1-trifluoro-2-methylpropan-2-yl((2R,6S,7R,9R,13aS,14aR,16aS,Z)-2-((3-(3-chloro-4-methoxyphenyl)-6-methoxyisoquinolin-1-yl)oxy)-14a-((cyclopropylsulfonyl)carbamoyl)-7,9-dimethyl-5,16-dioxo-1,2,3,5,6,7,8,9,10,11,13a,14,14a,15,16,16a-hexadecahydrocyclopropa[e]pyrrolo[1,2-a][1,4]diazacyclopentadecin-6-yl)carbamate] are more than 8.26 and more than 8.26.
The like results for `COc1ccc2c(O[C@@H]3C[C@H]4C(=O)N[C@]5(C(=O)NS(=O)(=O)C6CC6)C[C@H]5/C=C\CC[C@H](C)C[C@@H](C)[C@H](NC(=O)O[C@@H]5C[C@@H]6C[C@@H]6C5)C(=O)N4C3)nc(-c3ccc(OC)c(Cl)c3)cc2c1` [Compound 3053, (1R,3r,5S)-bicyclo[3.1.0]hexan-3-yl((2R,6S,7R,9S,13aS,14aR,16aS,Z)-2-((3-(3-chloro-4-methoxyphenyl)-6-methoxyisoquinolin-1-yl)oxy)-14a-((cyclopropylsulfonyl)carbamoyl)-7,9-dimethyl-5,16-dioxo-1,2,3,5,6,7,8,9,10,11,13a,14,14a,15,16,16a-hexadecahydrocyclopropa[e]pyrrolo[1,2-a][1,4]diazacyclopentadecin-6-yl)carbamate] were, in that order, more than 8.26 and more than 8.26.
On to `COc1ccc2c(O[C@@H]3C[C@H]4C(=O)N[C@]5(C(=O)NS(=O)(=O)C6CC6)C[C@H]5/C=C\CC[C@@H](C)C[C@@H](C)[C@H](NC(=O)O[C@@H]5C[C@@H]6C[C@@H]6C5)C(=O)N4C3)nc(-c3ccc(OC)c(Cl)c3)cc2c1` [Compound 3054, (1R,3r,5S)-bicyclo[3.1.0]hexan-3-yl((2R,6S,7R,9R,13aS,14aR,16aS,Z)-2-((3-(3-chloro-4-methoxyphenyl)-6-methoxyisoquinolin-1-yl)oxy)-14a-((cyclopropylsulfonyl)carbamoyl)-7,9-dimethyl-5,16-dioxo-1,2,3,5,6,7,8,9,10,11,13a,14,14a,15,16,16a-hexadecahydrocyclopropa[e]pyrrolo[1,2-a][1,4]diazacyclopentadecin-6-yl)carbamate], for which the pEC50 in test [1] and in test [2] was more than 8.26 each time.
